This is an account of results in patent publication US6905865B1, “Detection of a gene, vatE, encoding an acetyltransferase inactivating streptogramin” (Institut Pasteur, priority 1999, dated 2005).

The subject of assay [1] is S. aureus RN4220 [pIP1801]. Description: MIC of pristinamycin IIA for S. aureus RN4220 carrying pIP1801 (vatE). To be noted: Staphylococcus aureus; S. aureus recipient RN4220 with pIP1801 (pOX7 carrying vatE), introduced by electroporation. In kind it is cell-based. On the procedure: (§1) A DNA fragment of 858 nt containing vatE (nt 104 to nt 961, Accession No. AF153312) was amplified from pIP1798 and inserted between the EcoRI and SmaI sites of the shuttle vector, pOX7 (11). The resulting plasmid, pIP1801, introduced by electroporation in the S. aureus recipient, RN4220 (15), conferred resistance to pristinamycin IIA (MICs: 2 μg/ml for RN4220 [pOX7] and 8 μg/ml for RN4220 [pIP1801]).

For a further assay, the system named is S. aureus RN4220 [pOX7]. Description: MIC of pristinamycin IIA for S. aureus RN4220 carrying the shuttle vector pOX7. In kind it is cell-based. Particulars: Staphylococcus aureus; S. aureus recipient RN4220 with empty shuttle vector pOX7. On the procedure:
as §1

Molecules are shown by their SMILES.

The term MIC denotes the least concentration at which growth counts as inhibited. For the molecule `CC1=C\[C@@H](O)CC(=O)Cc2nc(co2)C(=O)N2CCC=C2C(=O)O[C@H](C(C)C)[C@H](C)/C=C/C(=O)NC\C=C\1` [pristinamycin IIA], the minimum inhibitory concentration (MIC) was 8 µg/mL in assay [1] and 2 µg/mL in the assay with S. aureus RN4220 [pOX7].
